Biological target: GST-tagged truncated human mutant G2019S LRRK2 (Homo sapiens, UniProt Q5S007, G2019S)
Assay: LRRK2 G2019S Km ATP LanthaScreen assay
Assay type: biochemical
Conditions: 134 μM ATP (Km ATP), LRRKtide substrate, mean IC50 values; read-out: LRRK2 pIC50 (converted)
Method in brief: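 LanthaScreen TR-FRET read with fluorescein-LRRKtide and 134 μM ATP (Km) in Tris pH 8.5/10 mM MgCl2 buffer. The enzyme was preincubated 15 min with compound at room temperature, and the reaction ran 90 min at ambient temperature. Stopped with EDTA plus Tb anti-phospho-LRRKtide antibody; the 520/495 nm ratio gave a 4-parameter logistic IC50, mean of several runs.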

Compound	IC50
COCC12CC(n3ncc(Nc4ncc5cc(Cl)c(N6C[C@H]7CC[C@@H](C6)[C@@]7(C)O)cc5n4)c3Cl)(C1)C2 [Ex-3.1, (Endo)-3-(6-chloro-2-((5-chloro-1-(3-(methoxymethyl)bicyclo[1.1.1]pentan-1-yl)-1H-pyrazol-4-yl)amino)quinazolin-7-yl)-8-methyl-3-azabicyclo[3.2.1]octan-8-ol]	0.093 nM
CC1CN(c2cc3nc(Nc4cnn(C5CC5)c4Cl)ncc3cc2Cl)CCN1CC(C)(C)O (centres unmarked) [Ex-1.32, 1-(4-{6-chloro-2-[(5-chloro-1-cyclopropyl-1H-pyrazol-4-yl)amino]quinazolin-7-yl}-2-methylpiperazin-1-yl)-2-methylpropan-2-ol]	5.49 nM
CC1(N2CCN(c3cc4nc(Nc5cnn(C6COC6)c5Cl)ncc4cc3Cl)CC2)COC1 [Ex-4.49, 6-chloro-N-[5-chloro-1-(oxetan-3-yl)-1H-pyrazol-4-yl]-7-[4-(3-methyloxetan-3-yl)piperazin-1-yl]quinazolin-2-amine]	1.87 nM
Clc1cc2cnc(Nc3cnn(C4CC4)c3Cl)nc2cc1N1CCN(C2COC2)CC1 [Ex-1.24, 6-chloro-N-(5-chloro-1-cyclopropyl-1H-pyrazol-4-yl)-7-[4-(oxetan-3-yl)piperazin-1-yl]quinazolin-2-amine]	2.59 nM
CC1CN(C2CCN(c3cc4nc(Nc5cnn(C6(C)CC6)c5Cl)ncc4cc3Cl)CC2)C1 [Ex-4.43, 6-chloro-N-[5-chloro-1-(1-methylcyclopropyl)-1H-pyrazol-4-yl]-7-[4-(3-methylazetidin-1-yl)piperidin-1-yl]quinazolin-2-amine]	3.52 nM
Cc1c(Nc2ncc3cc(Cl)c(N4CCN(C)C(C)(C)C4)cc3n2)cnn1CC(F)F [Ex-1.3]	180 nM
CC1(N2CCN(c3cc4nc(Nc5cnn6c5CCC6)ncc4cc3Cl)CC2)COC1 [Ex-4.20, 6-chloro-N-(5,6-dihydro-4H-pyrrolo[1,2-b]pyrazol-3-yl)-7-[4-(3-methyloxetan-3-yl)piperazin-1-yl]quinazolin-2-amine]	2.59 nM
Cc1c(Nc2cc3cc(N4CCN(C5(C)COCC5O)CC4)c(Cl)cc3cn2)cnn1C1CC1(F)F (single isomer, unassigned) [Ex-6.53, (3S,4S) or (3R,4R) 4-(4-(7-chloro-3-((1-(2,2-difluorocyclopropyl)-5-methyl-1H-pyrazol-4-yl)amino)isoquinolin-6-yl)piperazin-1-yl)-4-methyltetrahydrofuran-3-ol]	0.522 nM
CC(C)(O)Cn1ncc(Nc2ncc3cc(Br)c(NCC4CC4)nc3n2)c1Cl [Ex-15.1, 1-[4-({6-Bromo-7-[(cyclopropylmethyl)amino]pyrido[2,3-d]pyrimidin-2-yl}amino)-5-chloro-1H-pyrazol-1-yl]-2-methylpropan-2-ol]	36.7 nM
CC(C)(O)Cn1ncc(Nc2ncc3cc(Cl)c(N4CCC(C)(O)CC4)cc3n2)c1Cl [Ex-3.13, 1-(6-chloro-2-{[5-chloro-1-(2-hydroxy-2-methylpropyl)-1H-pyrazol-4-yl]amino}quinazolin-7-yl)-4-methylpiperidin-4-ol]	1.54 nM
Cc1c(Nc2cc3cc(N4CCN(C5(C)COCC5O)CC4)c(Cl)cc3cn2)cnn1C1CC1 (single isomer, unassigned) [Ex-6.51, (3S,4S) or (3R,4R) 4-(4-(7-chloro-3-((1-cyclopropyl-5-methyl-1H-pyrazol-4-yl)amino)isoquinolin-6-yl)piperazin-1-yl)-4-methyltetrahydrofuran-3-ol]	1.35 nM
C[C@H]1COC(=O)N1c1ccc2cnc(Nc3cn(C)nc3C(F)(F)F)nc2c1 [Ex-7.7, (4S)-4-methyl-3-(2-{[1-methyl-3-(trifluoromethyl)-1H-pyrazol-4-yl]amino}quinazolin-7-yl)-1,3-oxazolidin-2-one]	1.92 nM
Cc1c(Nc2ncc3cc(Cl)c(N4CCN(C5(C)COC5)CC4)cc3n2)cnn1CC(C)(C)O [Ex-4.55, 1-[4-({6-chloro-7-[4-(3-methyloxetan-3-yl)piperazin-1-yl]quinazolin-2-yl}amino)-5-methyl-1H-pyrazol-1-yl]-2-methylpropan-2-ol]	11.1 nM
CC1CCN1c1cc2nc(Nc3cnn(C4CN(CC(C)(C)O)C4)c3)ncc2cc1Cl (centres unmarked) [Ex-4.10, 1-[3-(4-{[6-chloro-7-(2-methylazetidin-1-yl)quinazolin-2-yl]amino}-1H-pyrazol-1-yl)azetidin-1-yl]-2-methylpropan-2-ol]	34.3 nM
CC1(O)CCN(c2cc3nc(Nc4cnn(C5CC5)c4Cl)ncc3cc2Cl)CC1 [Ex-1.34, 1-{6-chloro-2-[(5-chloro-1-cyclopropyl-1H-pyrazol-4-yl)amino]quinazolin-7-yl}-4-methylpiperidin-4-ol]	1.39 nM
C[C@]1(O)[C@@H]2CC[C@H]1CN(c1cc3nc(Nc4cnn(C5CC5(F)F)c4Cl)ncc3cc1Cl)C2 (single isomer, unassigned) [Ex-3.41, (R) or (S) (8-syn)-3-(6-chloro-2-{[5-chloro-1-(2,2-difluorocyclopropyl)-1H-pyrazol-4-yl]amino}quinazolin-7-yl)-8-methyl-3-azabicyclo[3.2.1]octan-8-ol]	23 nM

Compound	IC50
Cc1nsc(Nc2ncc3ccc(N4C(=O)C5CCC4C5)cc3n2)c1C (centres unmarked) [Ex-8.14, 2-{2-[(3,4-dimethyl-1,2-thiazol-5-yl)amino]quinazolin-7-yl}-2-azabicyclo[2.2.1]heptan-3-one]	7.79 nM
CC1(n2ncc(Nc3ncc4cc(Cl)c(N5CC6(CN(CC(F)(F)F)C6)C5)cc4n3)c2Cl)CC1 [Ex-4.38, 6-chloro-N-[5-chloro-1-(1-methylcyclopropyl)-1H-pyrazol-4-yl]-7-[6-(2,2,2-trifluoroethyl)-2,6-diazaspiro[3.3]heptan-2-yl]quinazolin-2-amine]	29.4 nM
Cc1nsc(Nc2ncc3ccc(N4C(=O)OC[C@@H]4C)cc3n2)c1C [Ex-7.12, (4S)-3-{2-[(3,4-dimethyl-1,2-thiazol-5-yl)amino]quinazolin-7-yl}-4-methyl-1,3-oxazolidin-2-one]	0.625 nM
OC1CCN(c2cc3nc(Nc4cnn(C5CC5)c4Cl)ncc3cc2Cl)CC1 [Ex-3.8, 1-{6-chloro-2-[(5-chloro-1-cyclopropyl-1H-pyrazol-4-yl)amino]quinazolin-7-yl}piperidin-4-ol]	2.53 nM
Clc1cc2cnc(Nc3cnn(C4CC4)c3Cl)nc2cc1N1CCC(N2CCCC2)CC1 [Ex-1.44, 6-chloro-N-(5-chloro-1-cyclopropyl-1H-pyrazol-4-yl)-7-[4-(pyrrolidin-1-yl)piperidin-1-yl]quinazolin-2-amine]	22.3 nM
Cc1cc2cnc(Nc3cnn(C45CC(C4)C5)c3C)nc2cc1N1CCN(C2(C)CCOC2)CC1 (single isomer, unassigned) [Ex-2.4, (3S,4S or 3R,4R)-N-(1-(bicyclo[1.1.1]pentan-1-yl)-5-methyl-1H-pyrazol-4-yl)-6-methyl-7-(4-(3-methyltetrahydrofuran-3-yl)piperazin-1-yl)quinazolin-2-amine]	0.279 nM
CC1(N2CCN(c3cc4nc(Nc5cnn(C6CC6)c5Cl)ncc4cc3Cl)CC2)COC1 [Ex-4.58, 6-chloro-N-(5-chloro-1-cyclopropyl-1H-pyrazol-4-yl)-7-[4-(3-methyloxetan-3-yl)piperazin-1-yl]quinazolin-2-amine]	2.32 nM
CCn1ncc(Nc2ncc3ccc(N4C(=O)OCC4C4CC4)cc3n2)c1C (single isomer, unassigned) [Ex-7.16, (R) or (S) 4-cyclopropyl-3-{2-[(1-ethyl-5-methyl-1H-pyrazol-4-yl)amino]quinazolin-7-yl}-1,3-oxazolidin-2-one]	0.625 nM
CC1(N2CCN(c3cc4nc(Nc5cnn(CC(F)(F)F)c5)ncc4cc3Cl)CC2)COC1 [Ex-4.19, 6-chloro-7-[4-(3-methyloxetan-3-yl)piperazin-1-yl]-N-[1-(2,2,2-trifluoroethyl)-1H-pyrazol-4-yl]quinazolin-2-amine]	3.03 nM
CC1(O)CCN(c2cc3nc(Nc4cnn(CC(F)F)c4Cl)ncc3cc2Cl)C1 (centres unmarked) [Ex-1.14, 1-(6-chloro-2-{[5-chloro-1-(2,2-difluoroethyl)-1H-pyrazol-4-yl]amino}quinazolin-7-yl)-3-methylpyrrolidin-3-ol]	4.71 nM
Cc1c(Nc2ncc3cc(Cl)c(N4CCN(C5COCC5O)CC4)cc3n2)cnn1CC(F)F (single isomer, unassigned) [Ex-6.25, (3S,4S) or (3R,4R) 4-[4-(6-chloro-2-{[1-(2,2-difluoroethyl)-5-methyl-1H-pyrazol-4-yl]amino}quinazolin-7-yl)piperazin-1-yl]oxolan-3-ol]	0.418 nM
FC(F)(F)C1(n2ncc(Nc3ncc4cc(Cl)c(N5CCN(C6COC6)CC5)cc4n3)c2Cl)CC1 [Ex.3.23, 6-chloro-N-{5-chloro-1-[1-(trifluoromethyl)cyclopropyl]-1H-pyrazol-4-yl}-7-[4-(oxetan-3-yl)piperazin-1-yl]quinazolin-2-amine]	3.45 nM
Cc1cc2cnc(Nc3cnn(C4(C)CC4)c3Cl)nc2cc1N1CCN(C2(C)COC2)CC1 [Ex-5.9, N-[5-chloro-1-(1-methylcyclopropyl)-1H-pyrazol-4-yl]-6-methyl-7-[4-(3-methyloxetan-3-yl)piperazin-1-yl]quinazolin-2-amine]	0.64 nM
Cc1cc(Nc2ncc3ccc(N4C(=O)OC[C@@H]4C)cc3n2)n(C)n1 [Ex-8.1, (4S)-3-{2-[(1,3-dimethyl-1H-pyrazol-5-yl)amino]quinazolin-7-yl}-4-methyl-1,3-oxazolidin-2-one]	4.41 nM
COC1CCC1n1ncc(Nc2ncc3cc(Cl)c(N4CCC(C)(O)CC4)cc3n2)c1C (single isomer, unassigned) [Ex-6.20, 1-[6-chloro-2-({1-[(1R,2R) or (1S,2S)-2-methoxycyclobutyl]-5-methyl-1H-pyrazol-4-yl}amino)quinazolin-7-yl]-4-methylpiperidin-4-ol]	2.53 nM
CC1(O)CCN(c2cc3nc(Nc4cnn(C(C)(C)C#N)c4Cl)ncc3cc2Cl)CC1 [Ex-6.6, 2-(5-chloro-4-{[6-chloro-7-(4-hydroxy-4-methylpiperidin-1-yl)quinazolin-2-yl]amino}-1H-pyrazol-1-yl)-2-methylpropanenitrile]	4.02 nM

— patent publication US20230303540A1 (Merck Sharp & Dohme LLC, priority 2020, published 2023)
